Measurements reported in US9682995B2, “Amino-substituted isothiazoles” (BAYER PHARMA AKTIENGESELLSCHAFT, priority 2013, dated 2017).

Key:
Experiment in all cases: Kinase Profiling (KINOMEscan)
Type in all cases: binding
[1] = biological target: 456 kinases (of these 395 non-mutant kinases) (Homo sapiens, UniProt P06239); conditions: LCK; 10 μM
[2] = biological target: 456 kinases (of these 395 non-mutant kinases) (Homo sapiens, UniProt P17948); conditions: FLT1; 10 μM
[3] = biological target: 456 kinases (of these 395 non-mutant kinases) (Homo sapiens, UniProt P54646); conditions: AMPK-alpha2; 10 μM
[4] = biological target: 456 kinases (of these 395 non-mutant kinases) (Homo sapiens, UniProt O60331); conditions: PIP5K1C; 10 μM
[5] = biological target: 456 kinases (of these 395 non-mutant kinases) (Homo sapiens, UniProt Q99558); conditions: NIK; 10 μM
[6] = biological target: 456 kinases (of these 395 non-mutant kinases) (Homo sapiens, UniProt O43683); conditions: BUB1; 10 μM
[7] = biological target: 456 kinases (of these 395 non-mutant kinases) (Homo sapiens, UniProt Q14289); conditions: PYK2; 10 μM
[8] = biological target: 456 kinases (of these 395 non-mutant kinases) (Homo sapiens, UniProt O75116); conditions: ROCK2; 10 μM
[9] = biological target: 456 kinases (of these 395 non-mutant kinases) (Homo sapiens, UniProt P30291); conditions: WEE1; 10 μM
[10] = biological target: 456 kinases (of these 395 non-mutant kinases) (Homo sapiens, UniProt O43283); conditions: LZK; 10 μM
[11] = biological target: 456 kinases (of these 395 non-mutant kinases) (Homo sapiens, UniProt O00141); conditions: SGK; 10 μM
[12] = biological target: 456 kinases (of these 395 non-mutant kinases) (Homo sapiens, UniProt Q9H3Y6); conditions: SRMS; 10 μM
[13] = biological target: 456 kinases (of these 395 non-mutant kinases) (Homo sapiens, UniProt O75582); conditions: 10 μM
[14] = biological target: 456 kinases (of these 395 non-mutant kinases) (Homo sapiens, UniProt Q9NRP7); conditions: STK36; 10 μM
[15] = biological target: 456 kinases (of these 395 non-mutant kinases) (Homo sapiens, UniProt Q99755); conditions: PIP5K1A; 10 μM
[16] = biological target: 456 kinases (of these 395 non-mutant kinases) (Homo sapiens, UniProt Q9P2K8, S808G); conditions: GCN2(Kin.Dom.2,S808G); 10 μM
[17] = biological target: 456 kinases (of these 395 non-mutant kinases) (Homo sapiens, UniProt Q13464); conditions: ROCK1; 10 μM
[18] = biological target: 456 kinases (of these 395 non-mutant kinases) (Homo sapiens, UniProt P20794); conditions: MAK; 10 μM
[19] = biological target: 456 kinases (of these 395 non-mutant kinases) (Homo sapiens, UniProt Q9BYP7); conditions: WNK3; 10 μM
[20] = biological target: 456 kinases (of these 395 non-mutant kinases) (Homo sapiens, UniProt O75676); conditions: 10 μM
[21] = biological target: 456 kinases (of these 395 non-mutant kinases) (Homo sapiens, UniProt O00506); conditions: YSK1; 10 μM
[22] = biological target: 456 kinases (of these 395 non-mutant kinases) (Homo sapiens, UniProt Q9H422); conditions: HIPK3; 10 μM
[23] = biological target: 456 kinases (of these 395 non-mutant kinases) (Homo sapiens, UniProt P00533, L858R); conditions: EGFR(L858R); 10 μM
[24] = biological target: 456 kinases (of these 395 non-mutant kinases) (Homo sapiens, UniProt Q00537); conditions: PCTK2; 10 μM
[25] = biological target: 456 kinases (of these 395 non-mutant kinases) (Homo sapiens, UniProt Q09013); conditions: DMPK; 10 μM
[26] = biological target: 456 kinases (of these 395 non-mutant kinases) (Homo sapiens, UniProt P17612); conditions: PKAC-alpha; 10 μM
[27] = biological target: 456 kinases (of these 395 non-mutant kinases) (Homo sapiens, UniProt P27361); conditions: ERK1; 10 μM
[28] = biological target: 456 kinases (of these 395 non-mutant kinases) (Homo sapiens, UniProt Q86Y07); conditions: VRK2; 10 μM
[29] = biological target: 456 kinases (of these 395 non-mutant kinases) (Homo sapiens, UniProt Q14164); conditions: IKK-epsilon; 10 μM
[30] = biological target: 456 kinases (of these 395 non-mutant kinases) (Homo sapiens, UniProt P35968); conditions: VEGFR2; 10 μM
[31] = biological target: 456 kinases (of these 395 non-mutant kinases) (Homo sapiens, UniProt P07949, V804L); conditions: RET(V804L); 10 μM
456 kinases (of these 395 non-mutant kinases) (Homo sapiens, UniProt P07949, V804L), sequence (P07949 29-1114 V804L limits assumed): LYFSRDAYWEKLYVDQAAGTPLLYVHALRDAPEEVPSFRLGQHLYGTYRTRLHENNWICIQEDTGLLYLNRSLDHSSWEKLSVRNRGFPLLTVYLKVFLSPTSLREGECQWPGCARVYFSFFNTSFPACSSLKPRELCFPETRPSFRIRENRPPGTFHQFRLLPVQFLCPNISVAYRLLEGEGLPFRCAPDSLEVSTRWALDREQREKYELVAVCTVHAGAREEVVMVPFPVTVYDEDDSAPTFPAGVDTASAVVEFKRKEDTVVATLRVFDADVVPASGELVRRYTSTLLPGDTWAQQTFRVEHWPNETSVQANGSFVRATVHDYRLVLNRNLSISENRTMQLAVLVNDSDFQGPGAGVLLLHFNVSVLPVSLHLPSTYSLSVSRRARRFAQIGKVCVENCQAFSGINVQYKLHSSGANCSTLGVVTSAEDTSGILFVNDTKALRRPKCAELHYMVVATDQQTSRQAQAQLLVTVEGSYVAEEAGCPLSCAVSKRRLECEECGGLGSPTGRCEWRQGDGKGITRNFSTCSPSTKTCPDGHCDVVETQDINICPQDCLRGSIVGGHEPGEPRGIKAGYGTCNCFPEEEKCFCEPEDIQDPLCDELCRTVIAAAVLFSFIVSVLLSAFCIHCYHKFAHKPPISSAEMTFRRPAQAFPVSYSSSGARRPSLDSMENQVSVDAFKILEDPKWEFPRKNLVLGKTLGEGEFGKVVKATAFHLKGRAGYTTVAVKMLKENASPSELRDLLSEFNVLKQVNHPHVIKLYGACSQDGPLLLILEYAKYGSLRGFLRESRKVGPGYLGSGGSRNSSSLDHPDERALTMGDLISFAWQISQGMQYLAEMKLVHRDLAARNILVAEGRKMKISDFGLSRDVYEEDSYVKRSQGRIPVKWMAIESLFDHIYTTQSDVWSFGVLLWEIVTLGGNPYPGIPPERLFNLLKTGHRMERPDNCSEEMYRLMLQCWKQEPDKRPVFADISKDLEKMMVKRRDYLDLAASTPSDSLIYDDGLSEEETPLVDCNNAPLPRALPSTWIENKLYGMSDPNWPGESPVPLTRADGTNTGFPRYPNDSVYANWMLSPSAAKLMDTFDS

456 kinases (of these 395 non-mutant kinases) (Homo sapiens, UniProt P27361), sequence (P27361 2-379 limits assumed, change not shown): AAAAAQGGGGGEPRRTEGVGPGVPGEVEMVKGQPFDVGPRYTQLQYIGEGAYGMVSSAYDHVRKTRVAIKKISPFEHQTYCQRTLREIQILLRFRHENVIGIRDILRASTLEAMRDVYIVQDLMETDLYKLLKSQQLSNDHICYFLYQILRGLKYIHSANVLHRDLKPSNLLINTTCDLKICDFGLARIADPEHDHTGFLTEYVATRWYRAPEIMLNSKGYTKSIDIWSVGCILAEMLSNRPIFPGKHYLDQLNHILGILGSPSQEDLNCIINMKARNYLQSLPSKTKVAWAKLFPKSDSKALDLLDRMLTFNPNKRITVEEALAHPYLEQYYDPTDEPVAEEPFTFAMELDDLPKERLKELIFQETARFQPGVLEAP
456 kinases (of these 395 non-mutant kinases) (Homo sapiens, UniProt P17948), sequence (P17948 27-1338 limits assumed, change not shown): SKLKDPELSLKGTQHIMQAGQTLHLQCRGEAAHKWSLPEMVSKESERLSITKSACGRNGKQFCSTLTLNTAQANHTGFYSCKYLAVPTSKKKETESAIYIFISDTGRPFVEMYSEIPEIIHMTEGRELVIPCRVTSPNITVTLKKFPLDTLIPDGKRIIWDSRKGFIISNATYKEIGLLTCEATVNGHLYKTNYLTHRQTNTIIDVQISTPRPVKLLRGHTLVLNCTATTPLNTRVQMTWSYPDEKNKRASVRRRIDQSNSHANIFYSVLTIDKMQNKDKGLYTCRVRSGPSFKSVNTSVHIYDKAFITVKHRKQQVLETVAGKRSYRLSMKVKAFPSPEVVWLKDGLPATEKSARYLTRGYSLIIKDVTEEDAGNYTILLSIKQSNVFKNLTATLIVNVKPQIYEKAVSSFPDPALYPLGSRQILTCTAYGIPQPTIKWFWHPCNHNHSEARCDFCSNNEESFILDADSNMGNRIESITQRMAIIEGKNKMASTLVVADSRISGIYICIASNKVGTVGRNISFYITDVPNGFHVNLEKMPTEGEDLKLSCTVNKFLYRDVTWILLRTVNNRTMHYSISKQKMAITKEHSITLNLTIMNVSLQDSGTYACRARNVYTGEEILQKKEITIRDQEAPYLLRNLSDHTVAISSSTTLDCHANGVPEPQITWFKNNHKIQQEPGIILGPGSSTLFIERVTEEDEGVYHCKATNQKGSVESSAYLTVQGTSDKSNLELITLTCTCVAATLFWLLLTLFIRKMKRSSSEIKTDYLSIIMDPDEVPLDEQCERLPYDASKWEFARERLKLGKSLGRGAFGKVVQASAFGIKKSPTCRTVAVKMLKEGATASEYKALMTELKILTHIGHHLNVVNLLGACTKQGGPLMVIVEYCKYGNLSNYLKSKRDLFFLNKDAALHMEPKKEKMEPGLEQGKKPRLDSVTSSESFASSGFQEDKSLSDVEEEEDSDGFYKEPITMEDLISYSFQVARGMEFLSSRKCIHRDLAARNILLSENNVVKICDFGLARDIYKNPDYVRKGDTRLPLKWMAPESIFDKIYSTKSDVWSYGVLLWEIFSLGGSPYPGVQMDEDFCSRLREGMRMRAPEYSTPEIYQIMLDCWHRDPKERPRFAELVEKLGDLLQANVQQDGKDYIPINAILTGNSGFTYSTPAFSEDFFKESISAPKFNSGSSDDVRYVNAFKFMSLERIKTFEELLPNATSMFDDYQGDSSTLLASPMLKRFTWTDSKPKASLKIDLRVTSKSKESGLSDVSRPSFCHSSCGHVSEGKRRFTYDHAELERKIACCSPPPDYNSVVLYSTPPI
456 kinases (of these 395 non-mutant kinases) (Homo sapiens, UniProt Q13464), sequence (Q13464 2-1354 limits assumed, change not shown): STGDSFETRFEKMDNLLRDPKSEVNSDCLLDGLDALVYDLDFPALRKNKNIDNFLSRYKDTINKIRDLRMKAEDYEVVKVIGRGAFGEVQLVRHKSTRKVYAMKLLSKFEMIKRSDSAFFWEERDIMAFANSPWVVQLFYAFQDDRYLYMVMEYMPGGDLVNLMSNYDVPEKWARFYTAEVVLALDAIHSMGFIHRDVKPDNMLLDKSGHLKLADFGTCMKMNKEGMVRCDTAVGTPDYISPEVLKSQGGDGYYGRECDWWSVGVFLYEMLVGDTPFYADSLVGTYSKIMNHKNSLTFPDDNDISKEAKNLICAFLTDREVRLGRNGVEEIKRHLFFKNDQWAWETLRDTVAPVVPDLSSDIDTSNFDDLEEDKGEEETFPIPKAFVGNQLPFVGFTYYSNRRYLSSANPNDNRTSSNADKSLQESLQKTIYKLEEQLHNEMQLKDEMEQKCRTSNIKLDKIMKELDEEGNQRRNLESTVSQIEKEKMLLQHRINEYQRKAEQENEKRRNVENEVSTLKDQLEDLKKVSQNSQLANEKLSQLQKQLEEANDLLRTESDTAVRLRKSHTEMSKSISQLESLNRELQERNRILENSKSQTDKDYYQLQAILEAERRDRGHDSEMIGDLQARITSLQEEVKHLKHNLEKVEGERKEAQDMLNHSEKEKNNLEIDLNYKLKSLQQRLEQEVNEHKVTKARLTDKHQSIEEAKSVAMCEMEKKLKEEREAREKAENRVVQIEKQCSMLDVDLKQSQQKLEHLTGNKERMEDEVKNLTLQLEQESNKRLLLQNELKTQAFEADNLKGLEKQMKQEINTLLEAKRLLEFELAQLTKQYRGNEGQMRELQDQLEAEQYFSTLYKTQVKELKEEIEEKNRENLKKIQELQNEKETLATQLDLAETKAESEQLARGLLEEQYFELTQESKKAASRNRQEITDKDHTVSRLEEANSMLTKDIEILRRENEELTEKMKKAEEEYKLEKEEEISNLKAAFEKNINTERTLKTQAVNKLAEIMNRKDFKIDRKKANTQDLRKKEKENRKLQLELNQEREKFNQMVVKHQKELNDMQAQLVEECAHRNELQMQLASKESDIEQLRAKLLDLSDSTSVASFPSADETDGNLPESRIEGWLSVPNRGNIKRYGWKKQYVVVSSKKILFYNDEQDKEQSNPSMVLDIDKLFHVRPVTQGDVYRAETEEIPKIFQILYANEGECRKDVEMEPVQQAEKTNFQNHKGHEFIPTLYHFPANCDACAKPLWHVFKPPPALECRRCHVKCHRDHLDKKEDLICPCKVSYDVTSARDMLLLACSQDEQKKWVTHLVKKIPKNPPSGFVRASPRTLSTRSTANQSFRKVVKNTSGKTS
456 kinases (of these 395 non-mutant kinases) (Homo sapiens, UniProt P06239), sequence (P06239 2-509 limits assumed, change not shown): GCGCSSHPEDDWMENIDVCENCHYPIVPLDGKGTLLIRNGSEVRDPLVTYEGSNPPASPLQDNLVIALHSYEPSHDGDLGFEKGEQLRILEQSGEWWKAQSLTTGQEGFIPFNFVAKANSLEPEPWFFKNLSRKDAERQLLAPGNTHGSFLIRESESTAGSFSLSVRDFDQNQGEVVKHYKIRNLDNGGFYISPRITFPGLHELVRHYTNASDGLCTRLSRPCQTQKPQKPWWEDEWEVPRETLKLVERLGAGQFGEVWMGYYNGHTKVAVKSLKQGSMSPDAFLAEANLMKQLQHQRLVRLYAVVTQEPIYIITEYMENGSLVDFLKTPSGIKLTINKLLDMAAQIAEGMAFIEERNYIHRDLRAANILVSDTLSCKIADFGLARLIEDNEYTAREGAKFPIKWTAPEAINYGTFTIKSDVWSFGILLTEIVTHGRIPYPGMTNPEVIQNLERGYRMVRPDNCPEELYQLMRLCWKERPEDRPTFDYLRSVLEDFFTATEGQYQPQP

## CCc1ccccc1NC(=O)c1c(C)nsc1Nc1cnc2cc(F)ccc2n1 [Example 20, N-(2-Ethylphenyl)-5-[(6-fluoroquinoxalin-2-yl)amino]-3-methyl-1,2-thiazole-4-carboxamide]
[1]
  % Ctrl @ 10 μM: 94 % Ctrl
[2]
  % Ctrl @ 10 μM: 74 % Ctrl
[3]
  % Ctrl @ 10 μM: 100 % Ctrl
[4]
  % Ctrl @ 10 μM: 100 % Ctrl
[5]
  % Ctrl @ 10 μM: 96 % Ctrl
[6]
  % Ctrl @ 10 μM: 100 % Ctrl
[7]
  % Ctrl @ 10 μM: 100 % Ctrl
[8]
  % Ctrl @ 10 μM: 100 % Ctrl
[9]
  % Ctrl @ 10 μM: 100 % Ctrl
[10]
  % Ctrl @ 10 μM: 88 % Ctrl
[11]
  % Ctrl @ 10 μM: 100 % Ctrl
[12]
  % Ctrl @ 10 μM: 100 % Ctrl
[13]; RPS6KA5(Kin.Dom.1-N-terminal)
  % Ctrl @ 10 μM: 100 % Ctrl
[13]; RPS6KA5(Kin.Dom.2-C-terminal)
  % Ctrl @ 10 μM: 100 % Ctrl
[14]
  % Ctrl @ 10 μM: 75 % Ctrl
[15]
  % Ctrl @ 10 μM: 100 % Ctrl
[16]
  % Ctrl @ 10 μM: 100 % Ctrl
[17]
  % Ctrl @ 10 μM: 81 % Ctrl
[18]
  % Ctrl @ 10 μM: 100 % Ctrl
[19]
  % Ctrl @ 10 μM: 100 % Ctrl
[20]; RPS6KA4(Kin.Dom.1-N-terminal)
  % Ctrl @ 10 μM: 93 % Ctrl
[20]; RPS6KA4(Kin.Dom.2-C-terminal)
  % Ctrl @ 10 μM: 88 % Ctrl
[21]
  % Ctrl @ 10 μM: 100 % Ctrl
[22]
  % Ctrl @ 10 μM: 96 % Ctrl
[23]
  % Ctrl @ 10 μM: 96 % Ctrl
[24]
  % Ctrl @ 10 μM: 100 % Ctrl
[25]
  % Ctrl @ 10 μM: 84 % Ctrl
[26]
  % Ctrl @ 10 μM: 91 % Ctrl
[27]
  % Ctrl @ 10 μM: 100 % Ctrl
[28]
  % Ctrl @ 10 μM: 100 % Ctrl
[29]
  % Ctrl @ 10 μM: 100 % Ctrl
[30]
  % Ctrl @ 10 μM: 100 % Ctrl
[31]
  % Ctrl @ 10 μM: 89 % Ctrl
